Measurements from ChEMBL document CHEMBL3877314, “Molecular docking, discovery, synthesis, and pharmacological properties of new 6-substituted-2-(3-phenoxyphenyl)-4-phenyl quinoline derivatives; an approach to developing potent DNA gyrase inhibitors/antibacterial agents” (Bioorg Med Chem, 2017).

Experiments:
[1] = Growth inhibition of human MCF7 cells at 10 to 150 ug/ml after 24 hrs by MTT assay relative to control; assay type: functional
[2] = system: Streptococcus pyogenes; assay: Antibacterial activity against Streptococcus pyogenes MTCC 442 at 250 ug/ml after 24 hrs by agar well diffusion method; assay type: functional; details: MTCC 442, 24 h, read-out: IZ
[3] = system: Pseudomonas aeruginosa; assay: Antibacterial activity against Pseudomonas aeruginosa MTCC 424 at 250 ug/ml after 24 hrs by agar well diffusion method; assay type: functional; details: MTCC 424, 24 h, read-out: IZ
[4] = Growth inhibition of human MCF10 cells at 10 to 150 ug/ml after 24 hrs by MTT assay; assay type: cell-based; details: mcf10, 24 h
[5] = system: Staphylococcus aureus; assay: Antibacterial activity against Staphylococcus aureus MTCC 96 at 250 ug/ml after 24 hrs by agar well diffusion method; assay type: functional; details: MTCC 96, 24 h, read-out: IZ
[6] = system: Escherichia coli; assay: Antibacterial activity against Escherichia coli MTCC 443 at 250 ug/ml after 24 hrs by agar well diffusion method; assay type: functional; details: MTCC 443, 24 h, read-out: IZ
[7] = Growth inhibition of human MCF7 cells after 24 hrs by MTT assay; assay type: functional, cell-based; details: MCF7, 24 h
[8] = target: DNA gyrase subunit A (Staphylococcus aureus, UniProt P20831); assay: Inhibition of Staphylococcus aureus DNA gyrase A expressed in Escherichia coli BL21(DE3) using relaxed pBR322 DNA as substrate incubated for 1 hr by bromophenol blue dye based agarose gel electrophoresis method
DNA gyrase subunit A, sequence (P20831 whole entry): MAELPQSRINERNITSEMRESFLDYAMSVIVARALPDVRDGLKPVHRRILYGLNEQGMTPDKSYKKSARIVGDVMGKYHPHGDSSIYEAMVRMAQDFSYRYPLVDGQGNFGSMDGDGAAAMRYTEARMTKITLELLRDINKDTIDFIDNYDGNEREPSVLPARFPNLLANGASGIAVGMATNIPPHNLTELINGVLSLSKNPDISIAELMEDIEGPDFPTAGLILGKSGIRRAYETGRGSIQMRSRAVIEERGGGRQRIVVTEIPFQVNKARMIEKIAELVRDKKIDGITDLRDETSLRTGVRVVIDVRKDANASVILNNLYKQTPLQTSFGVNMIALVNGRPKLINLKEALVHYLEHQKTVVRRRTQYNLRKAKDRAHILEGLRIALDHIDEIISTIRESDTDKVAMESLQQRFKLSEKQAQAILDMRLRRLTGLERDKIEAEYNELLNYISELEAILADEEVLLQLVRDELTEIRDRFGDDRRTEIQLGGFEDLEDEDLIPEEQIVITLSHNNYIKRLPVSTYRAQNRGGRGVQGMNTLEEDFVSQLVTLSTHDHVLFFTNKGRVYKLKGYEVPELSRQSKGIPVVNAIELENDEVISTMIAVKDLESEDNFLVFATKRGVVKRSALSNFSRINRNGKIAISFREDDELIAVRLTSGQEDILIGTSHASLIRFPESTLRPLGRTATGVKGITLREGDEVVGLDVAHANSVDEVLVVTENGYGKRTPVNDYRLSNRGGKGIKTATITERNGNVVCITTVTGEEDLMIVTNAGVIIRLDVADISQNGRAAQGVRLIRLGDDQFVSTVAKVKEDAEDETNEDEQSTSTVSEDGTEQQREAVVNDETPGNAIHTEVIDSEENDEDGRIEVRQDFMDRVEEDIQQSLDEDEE

[9] = Growth inhibition of human G361 cells after 24 hrs by MTT assay; assay type: functional, cell-based; details: G-361, 24 h
[10] = Growth inhibition of human G361 cells at 10 to 150 ug/ml after 24 hrs by MTT assay relative to control; assay type: functional, G-361

## COc1ccc2nc(-c3cccc(Oc4ccccc4)c3)cc(-c3ccccc3)c2c1
[1]
  growth inhibition (GI): 74.49%
[2]
  zone of inhibition at 250 µg/mL: 22.7 mm
[3]
  zone of inhibition at 250 µg/mL: 10.8 mm
[4]
  growth inhibition (GI): Non-Toxic
[5]
  zone of inhibition at 250 µg/mL: 29.6 mm
[6]
  zone of inhibition at 250 µg/mL: 21.4 mm
[7]
  IC50: 0.548 µM
[8]
  IC50: 0.53 to 11.5 µM
[9]
  IC50: 2.02 µM
[10]
  growth inhibition (GI): 59.27%

## Clc1ccc2nc(-c3cccc(Oc4ccccc4)c3)cc(-c3ccccc3)c2c1
[1]
  growth inhibition (GI): 32.14%
[2]
  zone of inhibition at 250 µg/mL: 20.2 mm
[3]
  zone of inhibition at 250 µg/mL: 6.89 mm
[4]
  growth inhibition (GI): Non-Toxic
[5]
  zone of inhibition at 250 µg/mL: 21.6 mm
[6]
  zone of inhibition at 250 µg/mL: 18.1 mm
[7]
  IC50: 11 µM
[8]
  IC50: 0.525 to 11.3 µM
[9]
  IC50: 12 µM
[10]
  growth inhibition (GI): 30.45%

## Oc1c(Cl)cc2nc(-c3cccc(Oc4ccccc4)c3)cc(-c3ccccc3)c2c1Cl
[1]
  growth inhibition (GI): 73.17%
[2]
  zone of inhibition at 250 µg/mL: 29.2 mm
[3]
  zone of inhibition at 250 µg/mL: 21.3 mm
[4]
  growth inhibition (GI): Non-Toxic
[5]
  zone of inhibition at 250 µg/mL: 38.5 mm
[6]
  zone of inhibition at 250 µg/mL: 26 mm
[7]
  IC50: 0.702 µM
[8]
  IC50: 0.467 µM
[9]
  IC50: 2 µM
[10]
  growth inhibition (GI): 60.34%

## Fc1ccc2nc(-c3cccc(Oc4ccccc4)c3)cc(-c3ccccc3)c2c1
[1]
  growth inhibition (GI): 60.25%
[2]
  zone of inhibition at 250 µg/mL: 18.5 mm
[3]
  zone of inhibition at 250 µg/mL: 10.4 mm
[4]
  growth inhibition (GI): Non-Toxic
[5]
  zone of inhibition at 250 µg/mL: 29.9 mm
[6]
  zone of inhibition at 250 µg/mL: 18.3 mm
[7]
  IC50: 1.68 µM
[8]
  IC50: 0.912 to 0.994 µM
[9]
  IC50: 3.85 µM
[10]
  growth inhibition (GI): 46.24%

## Oc1ccc2nc(-c3cccc(Oc4ccccc4)c3)cc(-c3ccccc3)c2c1
[1]
  growth inhibition (GI): 72.56%
[2]
  zone of inhibition at 250 µg/mL: 29.8 mm
[3]
  zone of inhibition at 250 µg/mL: 16.5 mm
[4]
  growth inhibition (GI): Non-Toxic
[5]
  zone of inhibition at 250 µg/mL: 34.6 mm
[6]
  zone of inhibition at 250 µg/mL: 26.5 mm
[7]
  IC50: 0.694 µM
[8]
  IC50: 0.842 to 1.07 µM
[9]
  IC50: 2.07 µM
[10]
  growth inhibition (GI): 58.46%

## Brc1ccc2nc(-c3cccc(Oc4ccccc4)c3)cc(-c3ccccc3)c2c1
[1]
  growth inhibition (GI): 30.81%
[2]
  zone of inhibition at 250 µg/mL: 22.4 mm
[3]
  zone of inhibition at 250 µg/mL: 9.79 mm
[4]
  growth inhibition (GI): Non-Toxic
[5]
  zone of inhibition at 250 µg/mL: 22.5 mm
[6]
  zone of inhibition at 250 µg/mL: 16.4 mm
[7]
  IC50: 11.1 µM
[8]
  IC50: 0.473 to 10.2 µM
[9]
  IC50: 14.6 µM
[10]
  growth inhibition (GI): 28.89%

## Cc1cc2nc(-c3cccc(Oc4ccccc4)c3)cc(-c3ccccc3)c2cc1C
[1]
  growth inhibition (GI): 48.34%
[2]
  zone of inhibition at 250 µg/mL: 22.5 mm
[3]
  zone of inhibition at 250 µg/mL: 11.4 mm
[4]
  growth inhibition (GI): Non-Toxic
[5]
  zone of inhibition at 250 µg/mL: 27.5 mm
[6]
  zone of inhibition at 250 µg/mL: 22.5 mm
[7]
  IC50: 3.41 µM
[8]
  IC50: 0.533 to 11.5 µM
[9]
  IC50: 5.84 µM
[10]
  growth inhibition (GI): 38.18%

## N#Cc1ccc2nc(-c3cccc(Oc4ccccc4)c3)cc(-c3ccccc3)c2c1
[1]
  growth inhibition (GI): 70.64%
[2]
  zone of inhibition at 250 µg/mL: 21.2 mm
[3]
  zone of inhibition at 250 µg/mL: 12.7 mm
[4]
  growth inhibition (GI): Non-Toxic
[5]
  zone of inhibition at 250 µg/mL: 26.5 mm
[6]
  zone of inhibition at 250 µg/mL: 16.5 mm
[7]
  IC50: 0.822 µM
[8]
  IC50: 0.537 to 11.6 µM
[9]
  IC50: 2.15 µM
[10]
  growth inhibition (GI): 54.38%

## CO[C@@H]1[C@@H](OC(=O)c2ccc(C)[nH]2)[C@@H](O)[C@H](Oc2ccc3c(O)c(NC(=O)c4ccc(O)c(CC=C(C)C)c4)c(=O)oc3c2Cl)OC1(C)C [CHLOROBIOCIN]
[8]
  IC50: 0.93 µM

## O=C(O)c1cn(C2CC2)c2cc(N3CCNCC3)c(F)cc2c1=O [CIPROFLOXACIN]
[2]
  zone of inhibition at 250 µg/mL: 18 to 24.4 mm
[3]
  zone of inhibition at 250 µg/mL: 21 to 23.8 mm
[5]
  zone of inhibition at 250 µg/mL: 21 to 26.4 mm
[6]
  zone of inhibition at 250 µg/mL: 21 to 26.7 mm

## COc1cccc2c1C(=O)c1c(O)c3c(c(O)c1C2=O)C[C@@](O)(C(=O)CO)C[C@@H]3O[C@H]1C[C@H](N)[C@H](O)[C@H](C)O1 [DOXORUBICIN]
[1]
  growth inhibition (GI): 71.56%
[7]
  IC50: 0.812 to 1.2 µM
